The values below come from patent US20160074517A1, “AQUEOUS FORMULATIONS OF SPARINGLY WATER-SOLUBLE ACTIVE INGREDIENTS COMPRISING AS SOLUBILIZER A MIXTURE OF POLOXAMERS DIFFERING IN HYDROPHOBICITY” (BASF SE, priority 2013, published 2016).

This data set in a line: Solubilization of sparingly water-soluble active ingredient in aqueous poloxamer formulations, quantified by UV/Vis spectroscopy. In kind it is physicochemical. The method, then: General procedure for the preparation of the aqueous formulations: […]
The data in % by weight in the tables below refer to the total amount of the aqueous formulation.
Components A and B in the amounts stated below in each case and also 2% by weight of active ingredient were dissolved in water (at 20° C. and ambient pressure).
The sample was stirred at 20° C. for 24 h (magnetic stirrer 500 rpm) and then filtered through an injection filter (PVDF filter membrane, 0.45 μm pore size).
The active ingredient quantification takes place via UV/Vis spectroscopy. For this, the samples were diluted with an organic solvent in which the active ingredient dissolves to at least 10 000 ppm (1% by weight) (ethanol).
By contrast, the solubilizing effect of a 5% strength by weight aqueous solution of PE10400 as individual component was stipulated as standard with the value 1 and the solubilizing effect of the mixtures was determined against this standard.
The solubilizing effect of a 5% strength by weight aqueous solution of PE 10400 was again selected as standard 1.

As for `Cn1cc(C(=O)Nc2ccccc2-c2cc(F)c(F)c(F)c2)c(C(F)F)n1` [fluxapyroxad], the “solubility in a 5% strength by weight aqueous solution of PE 4300 (component B)” value (5% by weight PE 4300 in water, 20° C., 24 h stirring, filtered 0.45 μm) stood at 28 ppm. Also, for the setting “5% by weight PE 6200 in water, 20° C., 24 h stirring, filtered 0.45 μm”, the “solubility in a 5% strength by weight aqueous solution of PE 6200 (component B)” value worked out at 31 ppm. Further, the “solubility in a 5% strength by weight aqueous solution of PE 10400 (component A)” value (5% by weight PE 10400 in water, 20° C., 24 h stirring, filtered 0.45 μm) stood at 710 ppm. Also, the “solubility in pure water” value (pure water) is 5 ppm.
